Reference: patent US8063071B2 (GlaxoSmithKline, LLC, priority 2007, dated 2011)
Structures can show the parent of a compound that is named as a salt.

Legend:
[1] = tested on: human monocyte stimulated cytokine production (TNF-α); assay: Monocyte assay (LPS-stimulated TNF-α production); format: cell-based; conditions: 24 h, 200 ng/mL LPS, TNF-α by ELISA
Method in brief: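 TNF-α release was measured by ELISA after 24 hrs at 37 C. Cells were stimulated with 200 ng/mL E. coli LPS, with compound added 30 minutes beforehand (0.1% DMSO vehicle). Cells were Ficoll/MACS-isolated CD14+ human monocytes adhered at 1×10^6 cells/mL, and viability was checked by trypan blue.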

[2] = target: T1, Recombinant human IKKβ (residues 1-737) (Homo sapiens, UniProt O14920); assay: IKK2 assay (TR-FRET); format: biochemical; conditions: ATP 1 μM final, read-out: pIC50 against IKK2 (converted)
T1 construct: Recombinant human IKKβ (residues 1-737); GST (C); made in house
T1 sequence (O14920 1-737): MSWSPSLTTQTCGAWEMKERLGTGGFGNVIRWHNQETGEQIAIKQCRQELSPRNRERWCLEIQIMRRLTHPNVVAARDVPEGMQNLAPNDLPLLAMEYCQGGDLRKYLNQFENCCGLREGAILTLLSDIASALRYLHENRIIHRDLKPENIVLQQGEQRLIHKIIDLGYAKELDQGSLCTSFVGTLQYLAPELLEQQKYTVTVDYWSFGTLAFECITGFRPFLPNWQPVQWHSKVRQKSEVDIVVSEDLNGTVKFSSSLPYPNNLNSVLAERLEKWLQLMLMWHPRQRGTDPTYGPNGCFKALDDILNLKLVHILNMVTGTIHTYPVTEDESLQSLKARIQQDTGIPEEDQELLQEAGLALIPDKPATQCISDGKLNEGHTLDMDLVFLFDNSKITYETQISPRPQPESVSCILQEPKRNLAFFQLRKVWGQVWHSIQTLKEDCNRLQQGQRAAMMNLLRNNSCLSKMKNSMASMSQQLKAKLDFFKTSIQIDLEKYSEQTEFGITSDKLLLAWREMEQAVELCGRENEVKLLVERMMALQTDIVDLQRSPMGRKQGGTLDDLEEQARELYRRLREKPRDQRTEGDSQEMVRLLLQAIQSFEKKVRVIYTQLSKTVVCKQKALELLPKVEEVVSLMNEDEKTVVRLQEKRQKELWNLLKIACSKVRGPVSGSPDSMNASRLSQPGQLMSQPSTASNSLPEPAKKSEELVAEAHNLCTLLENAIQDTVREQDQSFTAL
Method in brief: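 TR-FRET readout (665 nm over 620 nm Eu reference) of GST-IB Ser32/36 phosphorylation after 60 min detection. Reaction: 1 μM ATP, 25 nM substrate, 0.5-5 nM GST-fused IKKβ 1-737 from baculovirus, pH 7.4 HEPES buffer, 1.7% DMSO, 15 min room temperature, EDTA-terminated.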

SMILES | IC50 [1] [nM] | IC50 [2] [µM]
CCCNCc1cc(-c2cc(C(N)=O)c3[nH]cc(C4CCN(S(=O)(=O)CC)CC4)c3c2)cs1 [Example 106, 3-[1-(ethylsulfonyl)-4-piperidinyl]-5-{5-[(propylamino)methyl]-3-thienyl}-1H-indole-7-carboxamide trifluoroacetate] | ≤ 1500 | ≤ 10
CCN(CC)Cc1cc(-c2cc(C(N)=O)c3[nH]cc(C4CCN(S(=O)(=O)CC)CC4)c3c2)cs1 [Example 107, 5-{5-[(diethylamino)methyl]-3-thienyl}-3-[1-(ethylsulfonyl)-4-piperidinyl]-1H-indole-7-carboxamide trifluoroacetate] | ≤ 1500 | ≤ 10
CCS(=O)(=O)N1CCC(c2c[nH]c3c(C(N)=O)cc(-c4csc(CN5[C@H](C)CC[C@H]5C)c4)cc23)CC1 [Example 108, 5-(5-{[(2R,5R)-2,5-dimethyl-1-pyrrolidinyl]methyl}-3-thienyl)-3-[1-(ethylsulfonyl)-4-piperidinyl]-1H-indole-7-carboxamide trifluoroacetate] | ≤ 1500 | ≤ 10
CCS(=O)(=O)N1CCC(c2c[nH]c3c(C(N)=O)cc(-c4csc(CNC5CC5)c4)cc23)CC1 [Example 109, 5-{5-[(cyclopropylamino)methyl]-3-thienyl}-3-[1-(ethylsulfonyl)-4-piperidinyl]-1H-indole-7-carboxamide trifluoroacetate] | ≤ 1500 | ≤ 10
CCS(=O)(=O)N1CCC(c2c[nH]c3c(C(N)=O)cc(-c4csc(CNC5CCC5)c4)cc23)CC1 [Example 110, 5-{5-[(cyclobutylamino)methyl]-3-thienyl}-3-[1-(ethylsulfonyl)-4-piperidinyl]-1H-indole-7-carboxamide trifluoroacetate] | ≤ 1500 | ≤ 10
CCS(=O)(=O)N1CCC(c2c[nH]c3c(C(N)=O)cc(-c4csc(CN(C)C)c4)cc23)CC1 [Example 111, 5-{5-[(dimethylamino)methyl]-3-thienyl}-3-[1-(ethylsulfonyl)-4-piperidinyl]-1H-indole-7-carboxamide trifluoroacetate] | ≤ 1500 | ≤ 10
CCS(=O)(=O)N1CCC(c2c[nH]c3c(C(N)=O)cc(-c4csc(CNCC5CCCC5)c4)cc23)CC1 [Example 112, 5-(5-{[(cyclopentylmethyl)amino]methyl}-3-thienyl)-3-[1-(ethylsulfonyl)-4-piperidinyl]-1H-indole-7-carboxamide trifluoroacetate] | ≤ 1500 | ≤ 10
CCS(=O)(=O)N1CCC(c2c[nH]c3c(C(N)=O)cc(-c4csc(CN[C@H](C)C(C)C)c4)cc23)CC1 [Example 113, 5-[5-({[(1R)-1,2-dimethylpropyl]amino}methyl)-3-thienyl]-3-[1-(ethylsulfonyl)-4-piperidinyl]-1H-indole-7-carboxamide trifluoroacetate] | ≤ 1500 | ≤ 10
CCS(=O)(=O)N1CCC(c2c[nH]c3c(C(N)=O)cc(-c4csc(CNC5CCCC5)c4)cc23)CC1 [Example 114, 5-{5-[(cyclopentylamino)methyl]-3-thienyl}-3-[1-(ethylsulfonyl)-4-piperidinyl]-1H-indole-7-carboxamide trifluoroacetate] | ≤ 1500 | ≤ 10
CCS(=O)(=O)N1CCC(c2c[nH]c3c(C(N)=O)cc(-c4csc(CNCC5CC5)c4)cc23)CC1 [Example 115, 5-(5-{[(cyclopropylmethyl)amino]methyl}-3-thienyl)-3-[1-(ethylsulfonyl)-4-piperidinyl]-1H-indole-7-carboxamide trifluoroacetate] | ≤ 1500 | ≤ 10
CCS(=O)(=O)N1CCC(c2c[nH]c3c(C(N)=O)cc(-c4csc(CN[C@@H](C)C(C)C)c4)cc23)CC1 [Example 116, 5-[5-({[(1S)-1,2-dimethylpropyl]amino}methyl)-3-thienyl]-3-[1-(ethylsulfonyl)-4-piperidinyl]-1H-indole-7-carboxamide trifluoroacetate] | ≤ 1500 | ≤ 10
CCS(=O)(=O)N1CCC(c2c[nH]c3c(C(N)=O)cc(-c4csc(CNCc5ccccc5)c4)cc23)CC1 [Example 118, 3-[1-(ethylsulfonyl)-4-piperidinyl]-5-(5-{[(phenylmethyl)amino]methyl}-3-thienyl)-1H-indole-7-carboxamide trifluoroacetate] | > 1000 | ≤ 10

Second part, the compound after the results:

IC50 [1] [nM] | IC50 [2] [µM] | SMILES
≤ 1500 | ≤ 10 | CCS(=O)(=O)N1CCC(c2c[nH]c3c(C(N)=O)cc(-c4csc(CNC[C@@H]5CCCO5)c4)cc23)CC1 [Example 119, 3-[1-(ethylsulfonyl)-4-piperidinyl]-5-[5-({[(2S)-tetrahydro-2-furanylmethyl]amino}methyl)-3-thienyl]-1H-indole-7-carboxamide trifluoroacetate]
≤ 1500 | ≤ 10 | CCS(=O)(=O)N1CCC(c2c[nH]c3c(C(N)=O)cc(-c4csc(CNCC5CCOCC5)c4)cc23)CC1 [Example 120, 3-[1-(ethylsulfonyl)-4-piperidinyl]-5-(5-{[(tetrahydro-2H-pyran-4-ylmethyl)amino]methyl}-3-thienyl)-1H-indole-7-carboxamide trifluoroacetate]
≤ 1500 | ≤ 10 | CCCCNCc1cc(-c2cc(C(N)=O)c3[nH]cc(C4CCN(S(=O)(=O)CC)CC4)c3c2)cs1 [Example 121, 5-{5-[(butylamino)methyl]-3-thienyl}-3-[1-(ethylsulfonyl)-4-piperidinyl]-1H-indole-7-carboxamide trifluoroacetate]
≤ 1500 | ≤ 10 | CCS(=O)(=O)N1CCC(c2c[nH]c3c(C(N)=O)cc(-c4csc(CN5CCC[C@@H]5COC)c4)cc23)CC1 [Example 124, 3-[1-(ethylsulfonyl)-4-piperidinyl]-5-[5-({(2R)-2-[(methyloxy)methyl]-1-pyrrolidinyl}methyl)-3-thienyl]-1H-indole-7-carboxamide trifluoroacetate]
≤ 1500 | ≤ 10 | CCS(=O)(=O)N1CCC(c2c[nH]c3c(C(N)=O)cc(-c4ccc(CCNC)cc4)cc23)CC1 [Example 125, 3-[1-(ethylsulfonyl)-4-piperidinyl]-5-{4-[2-(methylamino)ethyl]phenyl}-1H-indole-7-carboxamide]
≤ 1500 | ≤ 10 | CCCNCCc1ccc(-c2cc(C(N)=O)c3[nH]cc(C4CCN(S(=O)(=O)CC)CC4)c3c2)cc1 [Example 126, 3-[1-(ethylsulfonyl)-4-piperidinyl]-5-{4-[2-(propylamino)ethyl]phenyl}-1H-indole-7-carboxamide]
≤ 1500 | ≤ 10 | CCNCCc1ccc(-c2cc(C(N)=O)c3[nH]cc(C4CCN(S(=O)(=O)CC)CC4)c3c2)cc1 [Example 127, 5-{4-[2-(ethylamino)ethyl]phenyl}-3-[1-(ethylsulfonyl)-4-piperidinyl]-1H-indole-7-carboxamide]
> 1000 | ≤ 10 | CCS(=O)(=O)N1CCC(c2c[nH]c3c(C(N)=O)cc(-c4ccc(CNC(=O)c5cc(C)nn5C(C)(C)C)cc4)cc23)CC1 [Example 128, 5-{4-[({[1-(1,1-dimethylethyl)-3-methyl-1H-pyrazol-5-yl]carbonyl}amino)methyl]phenyl}-3-[1-(ethylsulfonyl)-4-piperidinyl]-1H-indole-7-carboxamide trifluoroacetate]
